{"source": "paper PMC9231138", "about": "“Dihydrotanshinone I Enhances Cell Adhesion and Inhibits Cell Migration in Osteosarcoma U−2 OS Cells through CD44 and Chemokine Signaling” (Molecules, 2022)", "format_in_all_cases": "cell-based, human", "key": {"U−2 OS cells": {"test_system": "U−2 OS cells", "experiment": "Scratch motility (wound-healing) assay", "description": "U-2 OS cells were seeded in 6-well plates at a density of 200,000 per well and cultured to 90% abundance after 18 h. The cells were scratched with a 10 μL pipette tip along the ruler; each well was scratched 3 times in parallel, and the line was drawn perpendicular to the scratch on the back for fixed-point photography. We suctioned the previous medium and washed the cells with a PBS reagent. Then, we added 2% FBS medium with DS−1 and cultured the cells at 37 °C for different times. After 0, 24, and 48 h, the plate was taken out, and the scratches were observed and photographed by the inverted microscope, while the distance of scratches at different times was measured.\nCell mobility = (pre-migration distance – post-migration distance)/pre-migration distance × 100%. The cell migration rate of blank control was set as 100%, and the relative cell migration rate = cell migration rate/cell migration rate of control group × 100%"}, "CD44": {"test_system": "CD44", "experiment": "RNA-seq transcriptome, CD44 expression", "settings": "DS−1 6.25 µM, 24 h", "description": "Sample preparation: U−2 OS cells were seeded in a 10 cm culture dish, and we cultured them to the logarithmic growth phase, suctioned the previous medium, and added new medium with DS−1 at 0 and 6.25 μM; each group was repeated two times. After 24 h of culture, the dish was washed with PBS reagent 3 times. One milliliter of TRIzol reagent was added to every dish for cell lysate and then collected in centrifuge tubes.\nTranscriptome sequencing and analysis were carried out by Novogene Bioinformatics Technology Co., Ltd. (Beijing, China).\nRaw data in the fastq format were firstly processed through in-house Perl scripts. In this step, clean data were obtained by removing reads containing adapter or containing ploy-N and low-quality reads from raw data. […]\nReference genome and gene model annotation files were downloaded from the genome website directly. The index of the reference genome was built using Hisat2 v2.0.5 (https://github.com/DaehwanKimLab/hisat2, accessed on 4 May 2022), and paired-end clean reads were aligned to the reference genome using Hisat2 v2.0.5. FeatureCounts v1.5.0-p3 (https://github.com/byee4/featureCounts, accessed on 4 May 2022) was used to count the reads numbers mapped to each gene. Then the Fragments PerKilobase of transcript sequence per Millions […] (FPKMs) of each gene were calculated based on the length of the gene and reads’ count mapped to this gene. […]"}, "cyclin D1": {"test_system": "cyclin D1", "experiment": "RT-PCR cyclin D1 mRNA in U−2 OS cells", "settings": "24 h", "description": "Total RNA within cells was extracted by the RNAeasy™ Animal Long RNA Isolation Kit with Spin Column (Shanghai, Beyotime); the concentrations and OD260/OD280 and OD230/OD260 values were measured by NanoDrop. Five micrograms of RNA was used for reverse transcription; each sample was diluted to 16 μL, and 4 μL of synthesized premix solution (5×) was added, then the mixtures were placed in a 42 °C water bath for 10 min, then an 80 °C water bath for 10 min to deactivate reverse transcriptase. After reverse transcription, each sample was diluted to 140 μL. PCR amplification was carried out by the ABI700 real-time PCR system, and the amplification reaction was detected with a SYBR probe. After PCR, actin and GAPDH were used as internal references, and the relative standard curve method (2^−ΔΔcT) determined the relative expression of mRNA."}, "[1]": {"test_system": "U−2 OS cells transfected with CD44 siRNA", "experiment": "Trypsin digestion time, CD44 siRNA knockdown U−2 OS cells", "settings": "DS−1 7.5 μM for 24 h, 25 °C, control about 120 s", "description": "Figure 8 CD44 knockdown reduced cell adhesion by shortening cell protrusions. (A) U−2 OS cells transfected with CD44 siRNA and no siRNA were seeded into a 24-well plate treated with 7.5 μM DS−1 for 24 h, and the expression of CD44 was detected by immunofluorescence. (B) CD44 expression of U−2 OS cells was detected by Western blotting after being treated with siRNA for 0, 24, and 36 h. (C) U−2 OS cells were first transfected with/without CD44 siRNA and then treated with DS−1 for 24 h, and its actin morphologies were detected. The representative magnified actin morphologies are listed in (D). (E) The lengths of protrusions in (C) were analyzed by Image J and are shown in a scatterplot graph. The lengths of 20 protrusions from actin in (C) were calculated. Each value is the average of 20 lengths of protrusions, ** p < 0.01, *** p < 0.005. (F) U−2 OS cells were transfected with CD44 siRNA, then treated with 0 and 7.5 μM DS−1 for 24 h and digested with trypsin at 25 °C; the digestion time was recorded by a microscope, and photos were taken every 30 s. The percentage of digested cells is recorded in (G).\nSmall interfering RNA (siRNA) oligonucleotide was synthesized by Sunya Biotechnology Co., Ltd (Hangzhou, China). The siRNA sequences were as follows: sense (5′–3′), UAUUCCACGUGGAGAAAAAtt; antisense (5′–3′), UUUUUCUCCACGUGGAAUAca. […]"}}, "data": [{"smiles": "Cc1cccc2c3c(ccc12)C1=C(C(=O)C3=O)[C@@H](C)CO1", "note": "[DS−1, 15,16-Dihydrotanshinone I]", "values": [{"measurement": "relative mobility compared to control cells", "setting": "U−2 OS cells; DS−1 2.5 µM, 24 h", "result": "24.8 ± 9.9", "unit": "%"}, {"measurement": "relative mobility compared to control cells", "setting": "U−2 OS cells; DS−1 2.5 μM, 48 h", "result": "18.1 ± 6.6", "unit": "%"}, {"measurement": "relative mobility compared to control cells", "setting": "U−2 OS cells; DS−1 5.0 µM, 24 h", "result": "17.5 ± 6.6", "unit": "%"}, {"measurement": "relative mobility compared to control cells", "setting": "U−2 OS cells; DS−1 5.0 μM, 48 h", "result": "7.3 ± 7.1", "unit": "%"}, {"measurement": "relative mobility compared to control cells", "setting": "U−2 OS cells; DS−1 7.5 µM, 24 h", "result": "6.6 ± 0.8", "unit": "%"}, {"measurement": "relative mobility compared to control cells", "setting": "U−2 OS cells; DS−1 7.5 μM, 48 h", "result": "4.3 ± 1.8", "unit": "%"}, {"measurement": "upregulation of CD44 in transcriptome", "setting": "CD44", "result": "2.94 ± 0.55", "unit": "fold"}, {"measurement": "cyclin D1 mRNA, fold of the control group", "setting": "cyclin D1; first of three DS−1 doses (2.5 µM per Fig. 5 legend)", "result": "0.27 ± 0.06", "unit": "fold"}, {"measurement": "cyclin D1 mRNA, fold of the control group", "setting": "cyclin D1; second of three DS−1 doses (5.0 µM per Fig. 5 legend)", "result": "0.29 ± 0.06", "unit": "fold"}, {"measurement": "cyclin D1 mRNA, fold of the control group", "setting": "cyclin D1; third of three DS−1 doses (7.5 µM per Fig. 5 legend)", "result": "0.20 ± 0.04", "unit": "fold"}, {"measurement": "time to total trypsin digestion", "setting": "[1]", "result": "≤ 150", "unit": "s"}]}]}
